Patent publication US7785828B1 (priority 2003, dated 2010)
Read-outs that look alike come from different tables or passages of the source.

What was measured:
Format in all cases: cell-based
Fusarium graminearum [1] = conditions: Table 2C (mixed diversity library); improvement compared to reference defensin protein DmAMP
Fusarium graminearum [2] = system: Fusarium graminearum
Septoria tritici = system: Septoria tritici
Mycosphaerella fijiensis = system: Mycosphaerella fijiensis
[3] = Measurement taken at 72 hours after inoculation, fold improvement compared to DmAMP1
[4] = Measurement taken at 144 hours after inoculation, fold improvement compared to DmAMP1

Sequence | Activity (1): antifungal activity of the NP against Fusarium graminearium (Fusarium graminearum [1]) | Antifungal activity, Fusarium graminearum (improvement compared to DmAMP1) (Fusarium graminearum [2]; [3]) | Antifungal activity, Septoria tritici (improvement compared to DmAMP1) (Septoria tritici; [4]) | Antifungal activity, Mycosphaerella fijiensis (improvement compared to DmAMP1) (Mycosphaerella fijiensis; [4]) | Antifungal activity, Fusarium graminearum (improvement compared to DmAMP1) (Fusarium graminearum [2]) | Antifungal activity, Septoria tritici (improvement compared to DmAMP1) (Septoria tritici) | Antifungal activity, Mycosphaerella fijiensis (improvement compared to DmAMP1) (Mycosphaerella fijiensis)
DGVKLCEKPSKTWSGHCGNTKHCDTQCRNWEKAKHGACHVRNGKWKCFCYFNC (Defensin like) [L7-392] | +++ (+++ indicates a >10-fold improvement) | + (+ indicating 1- to 5-fold improvement compared to DmAMP1) | + (+ indicating 1- to 5-fold improvement compared to DmAMP1) | + (+ indicating 1- to 5-fold improvement compared to DmAMP1) |  |  | 
DGVKLCEKPSQTWTGNCGNTKHCDTQCRNWEGAKHGACHKRNGKWKCFCYFNC (Defensin like) [L7-427] | ++ (++ indicates a >5- to 10-fold improvement) | ++ (++ indicating >5- to 10-fold improvement) | + (+ indicating 1- to 5-fold improvement compared to DmAMP1) | + (+ indicating 1- to 5-fold improvement compared to DmAMP1) |  |  | 
DGVKLCERASKTWSGHCGNTKHCDNQCRSWEGAKHGACHVRNGKWKCFCYFNC (Defensin like) [L7-452] | +++ (+++ indicates a >10-fold improvement) | ++ (++ indicating >5- to 10-fold improvement) | + (+ indicating 1- to 5-fold improvement compared to DmAMP1) | + (+ indicating 1- to 5-fold improvement compared to DmAMP1) |  |  | 
DGVKLCERASKTWTGNCGNTKHCDKQCKNWEGAKHGACHVRNGKWKCFCYFNC (Defensin like) [L7-449] | ++ (++ indicates a >5- to 10-fold improvement) | +++ (+++ indicating >10-fold improvement) | ++ (++ indicating >5- to 10-fold improvement) | + (+ indicating 1- to 5-fold improvement compared to DmAMP1) |  |  | 
DGVKLCERASQTWSGHCGNTKHCDNQCKSWEKAKHGACHVRSGKHKCFCYFNC (Defensin like) [L7-58] | +++ (+++ indicates a >10-fold improvement) | + (+ indicating 1- to 5-fold improvement compared to DmAMP1) | + (+ indicating 1- to 5-fold improvement compared to DmAMP1) | + (+ indicating 1- to 5-fold improvement compared to DmAMP1) |  |  | 
DGVKLCERASQTWTGHCGNTKHCDKQCKNWEGAKHGACHKRNGKWKCFCYFNC (Defensin like) [L7-432] | +++ (+++ indicates a >10-fold improvement) | +++ (+++ indicating >10-fold improvement) | + (+ indicating 1- to 5-fold improvement compared to DmAMP1) | +++ (+++ indicating >10-fold improvement) |  |  | 
DGVKLCERASQTWTGHCGNTKHCDKQCRNWEGAKHGACHKRNGKWKCFCYFNC (Defensin like) [L7-179] | +++ (+++ indicates a >10-fold improvement) | + (+ indicating 1- to 5-fold improvement compared to DmAMP1) | + (+ indicating 1- to 5-fold improvement compared to DmAMP1) | + (+ indicating 1- to 5-fold improvement compared to DmAMP1) |  |  | 
DGVKLCERASQTWTGHCGNTKHCDNQCKNWEGAKHGACHKRSGKWKCFCYFNC (Defensin like) [L7-176] | +++ (+++ indicates a >10-fold improvement) | + (+ indicating 1- to 5-fold improvement compared to DmAMP1) | + (+ indicating 1- to 5-fold improvement compared to DmAMP1) | + (+ indicating 1- to 5-fold improvement compared to DmAMP1) |  |  | 
DGVKLCERASQTWTGHCGNTKHCDNQCRNWEGAKHGACHKRNGKWKCFCYFNC (Defensin like) [L7-337] | ++ (++ indicates a >5- to 10-fold improvement) | +++ (+++ indicating >10-fold improvement) | + (+ indicating 1- to 5-fold improvement compared to DmAMP1) | ++ (++ indicating >5- to 10-fold improvement) |  |  | 
DGVKLCERPSQTWSGHCGNTKHCDKQCRNWEGAKHGACHVRNGKWKCFCYFNC (Defensin like) [L7-87] | +++ (+++ indicates a >10-fold improvement) | +++ (+++ indicating >10-fold improvement) | ++ (++ indicating >5- to 10-fold improvement) | + (+ indicating 1- to 5-fold improvement compared to DmAMP1) |  |  | 
NLCERASKTWSGNCGNTKHCDTQCRSWEGAAHGACHKRNGKWKCFCYFNC (Defensin like) [L9-14] |  |  |  |  | ++ (key: + indicating 1- to 5-fold improvement compared to DmAMP1; ++ indicating >5- to 10-fold improvement; +++ indicating >10-fold improvement) | + (key: + indicating 1- to 5-fold improvement compared to DmAMP1; ++ indicating >5- to 10-fold improvement; +++ indicating >10-fold improvement) | + (key: + indicating 1- to 5-fold improvement compared to DmAMP1; ++ indicating >5- to 10-fold improvement; +++ indicating >10-fold improvement)
NLCERASKTWSGNCGNTKHCDTQCRSWEGAAHGACHKRSGKWKCFCYFNC (Defensin like) [L9-41] |  |  |  |  | ++ (key: + indicating 1- to 5-fold improvement compared to DmAMP1; ++ indicating >5- to 10-fold improvement; +++ indicating >10-fold improvement) | + (key: + indicating 1- to 5-fold improvement compared to DmAMP1; ++ indicating >5- to 10-fold improvement; +++ indicating >10-fold improvement) | + (key: + indicating 1- to 5-fold improvement compared to DmAMP1; ++ indicating >5- to 10-fold improvement; +++ indicating >10-fold improvement)
NLCERASKTWTGNCGNTKHCDNQCKSWEGAAHGACHVRNGKHKCFCYFNC (Defensin like) [L5-24] |  |  |  |  | +++ (key: + indicating 1- to 5-fold improvement compared to DmAMP1; ++ indicating >5- to 10-fold improvement; +++ indicating >10-fold improvement) | ++ (key: + indicating 1- to 5-fold improvement compared to DmAMP1; ++ indicating >5- to 10-fold improvement; +++ indicating >10-fold improvement) | + (key: + indicating 1- to 5-fold improvement compared to DmAMP1; ++ indicating >5- to 10-fold improvement; +++ indicating >10-fold improvement)
NLCERASKTWTGNCGNTKHCDNQCKSWEGAAHGACHVRSGKHKCFCYFNC (Defensin like) [L6-39] |  |  |  |  | +++ (key: + indicating 1- to 5-fold improvement compared to DmAMP1; ++ indicating >5- to 10-fold improvement; +++ indicating >10-fold improvement) | ++ (key: + indicating 1- to 5-fold improvement compared to DmAMP1; ++ indicating >5- to 10-fold improvement; +++ indicating >10-fold improvement) | + (key: + indicating 1- to 5-fold improvement compared to DmAMP1; ++ indicating >5- to 10-fold improvement; +++ indicating >10-fold improvement)
NLCERASKTWTGNCGNTKHCDNQCRNWEGAAHGACHVRSGKHKCFCYFNC (Defensin like) [L6-85] |  |  |  |  | +++ (key: + indicating 1- to 5-fold improvement compared to DmAMP1; ++ indicating >5- to 10-fold improvement; +++ indicating >10-fold improvement) | + (key: + indicating 1- to 5-fold improvement compared to DmAMP1; ++ indicating >5- to 10-fold improvement; +++ indicating >10-fold improvement) | + (key: + indicating 1- to 5-fold improvement compared to DmAMP1; ++ indicating >5- to 10-fold improvement; +++ indicating >10-fold improvement)
NLCERASKTWTGNCGNTKHCDTQCRSWEGAAHGACHVRSGKHKCFCYFNC (Defensin like) [L5-23] |  |  |  |  | + (key: + indicating 1- to 5-fold improvement compared to DmAMP1; ++ indicating >5- to 10-fold improvement; +++ indicating >10-fold improvement) | + (key: + indicating 1- to 5-fold improvement compared to DmAMP1; ++ indicating >5- to 10-fold improvement; +++ indicating >10-fold improvement) | + (key: + indicating 1- to 5-fold improvement compared to DmAMP1; ++ indicating >5- to 10-fold improvement; +++ indicating >10-fold improvement)
